# Data as given in paper PMC10488193, “Evaluation of the Chemical Stability, Membrane Permeability and Antiproliferative Activity of Cyclic Diarylheptanoids from European Hornbeam (Carpinus betulus L.)” (International Journal of Molecular Sciences, 2023).
# “Also recorded” adds a separate entry of the source. Marks after values point to notes of the source that are not given here.
# Assays:
# PAMPA-GI = format: in vitro ADME
# Method: A parallel artificial membrane permeability assay (PAMPA) was used to determine the effective permeability (Pe) for the Carpinus diarylheptanoids. Stock solutions of the isolated compounds (10 mM in DMSO) were diluted with the defined buffer (pH 7.4 for the PAMPA-BBB and pH 6.8 for the PAMPA-GI assays) to obtain the donor solutions (composition: 297.0 μL buffer + 3.0 μL stock solution). Donor solutions were filtered through Phenex-RC 15 mm, 0.2 μm syringe filters (Gen-Lab Ltd., Budapest, Hungary).
# For the PAMPA-BBB test, 5 μL of porcine polar brain lipid extract (PBLE) solution (16.0 mg PBLE + 8.0 mg cholesterol dissolved in 600.0 μL n-dodecane) was applied for each well of the 96-well polycarbonate-based filter donor plates (top plate) (Multiscreen™-IP, MAIPN4510, pore size 0.45 μm; Merck). For the PAMPA-GI assay, the wells of the top plate were coated with 5 μL of the mixture of 8.0 mg phosphatidylcholine + 4.0 mg cholesterol dissolved in 300.0 μL n-dodecane. The 150.0 μL aliquots of the filtrated donor solutions were placed on the membrane. The 96-well PTFE acceptor plates (bottom plates) (Multiscreen Acceptor Plate, MSSACCEPTOR; Merck), were filled with 300.0 μL buffer solution (0.01 M PBS buffer, pH 7.4). […]
# After the incubation, the plates were separated and the compound concentrations in the donor (CD(t)) and acceptor (CA(t)) solutions were determined using the aforementioned UHPLC-DAD method (see Section 3.4). […] The effective permeability and the membrane retention in the PAMPA-BBB and the PAMPA GI experiments were calculated by Equations (3) and (4), respectively:(3) Pe=−2.303/A(t−τSS)·VA·VD/VA+VD·lg1−VA+VD/1−MR·VD×CAt/CD0 (4) Pe=−2.303/A(t−τSS))·1/1+ra·lg−ra+1+ra/1−MR×CDt/CD0 where Pe is the effective permeability coefficient (cm/s), A is the filter area (0.24 cm^2), VD and VA are the volumes in the donor (0.15 cm^3) and acceptor phases (0.30 cm^3), t is the incubation time (s), τSS is the time (s) to reach steady state (240 s), CD(t) is the concentration (mol/cm^3) of the compound in the donor phase at time t, CD(0) is the concentration (mol/cm^3) of the compound in the donor phase at time 0, MR is the estimated membrane retention factor (the estimated mole fraction of solute lost to the membrane) and ra is the sink asymmetry ratio (gradient-pH-induced), defined as:(5) ra=VD/VA×Pe(A→D)/Pe(D→A) (6) MR=1−CDt/CD0−VA/VDCAt/CD0
# All experiments were performed in three triplicates on three consecutive days (n = 9); caffeine standard was used as positive, while rutin was used as negative control. Clog P values were calculated using ACD/ChemSketch (Freeware) 2 January 2020 (Advanced Chemistry Development, Inc., Toronto, ON, Canada).
# [1] = Storage stability in solutions and hornbeam bark extracts (UHPLC-DAD); format: physicochemical; conditions: for k / t1/2: storage 23 weeks
# Method: For the analysis of the samples from the chemical stability as well as the PAMPA studies, sample concentrations were determined using our previously developed ultrahigh-performance liquid chromatography–diode array detection (UHPLC-DAD) method validated for linearity, precision and accuracy. Briefly, an ACQUITY UPLC H-Class PLUS System hyphenated with a quaternary solvent delivery pump (QSM), an auto-sampler manager (FTN), a column compartment (CM) and a photodiode array (PDA) detector (Waters Corporation) was employed. Stationary phase: Acquity BEH C18 column (100 × 2.1 mm i.d., 1.7 µm; Waters Corporation), column temperature: 30 °C. The mobile phase consisted of 0.3% acetic acid in water (eluent A) and acetonitrile (eluent B). The following gradient elution was applied at a flow rate of 0.3 mL/min: 0 min 12.0% B, 19.0 min 13.5% B, 25.5 min 75.0% B, 26.0 min 100.0% B, 28.0 min 100.0% B, 28.5 min 12.0% B.
# We used the following equations to calculate the first-order reaction rate constant (k) and the half-life (t1/2) indicating the time required to reduce the concentration of diarylheptanoids by 50% [29]:ln (ct/c0) = −k × t(1) t1/2 = −ln 0.5 × k^−1(2) where ct is the concentration of the diarylheptanoids at time t, c0 is the initial concentration, k is the reaction rate constant, t is the treatment time.
# The chemical stability of the isolated compounds in solutions was examined at a concentration of 50 µg/mL in methanol and water (in the latter case using methanol as co-solvent, final composition: water-methanol 90:10, v/v). Furthermore, the methanol and ethyl acetate extracts of C. betulus bark (concentration 4 mg/mL) were also studied in order to assess the effects of the accompanying substances. The storage stability studies were performed at a neutral pH value. All solutions were filtered through Phenex-RC 15 mm, 0.2 μm syringe filters (Gen-Lab Ltd., Budapest, Hungary). The samples were prepared in triplicate and stored protected from light at 22 ± 2.0 °C, 5 ± 1.5 °C and −15 ± 2.0 °C for 23 weeks. Quantities of the analytes of interest were quantified at weeks 12 and 23 using the abovementioned UHPLC-DAD method (see Section 3.4).
# The effects of the temperature and the medium (i.e., solvent and accompanying substances) were analysed through one-way analysis of variance (ANOVA) followed by Tukey’s post hoc HSD test (p < 0.05). To establish the kinetic parameters t1/2 and k, Equations (1) and (2) were applied, respectively.
# [2] = 12 weeks, 5 °C, EE (ethyl acetate extract of bark)
# [3] = 12 weeks, 5 °C, EM (methanol extract of bark)
# [4] = 12 weeks, 5 °C, SA (aqueous solution)
# [5] = 12 weeks, 5 °C, SM (methanol solution)
# [6] = 12 weeks, 22 °C, EE (ethyl acetate extract of bark)
# [7] = 12 weeks, 22 °C, EM (methanol extract of bark)
# [8] = 12 weeks, 22 °C, SA (aqueous solution)
# [9] = 12 weeks, 22 °C, SM (methanol solution)
# [10] = 12 weeks, −15 °C, EE (ethyl acetate extract of bark)
# [11] = 12 weeks, −15 °C, EM (methanol extract of bark)
# [12] = 12 weeks, −15 °C, SA (aqueous solution)
# [13] = 12 weeks, −15 °C, SM (methanol solution)
# [14] = 23 weeks, 5 °C, EE (ethyl acetate extract of bark)
# [15] = 23 weeks, 5 °C, EM (methanol extract of bark)
# [16] = 23 weeks, 5 °C, SA (aqueous solution)
# [17] = 23 weeks, 5 °C, SM (methanol solution)
# [18] = 23 weeks, 22 °C, EE (ethyl acetate extract of bark)
# [19] = 23 weeks, 22 °C, EM (methanol extract of bark)
# [20] = 23 weeks, 22 °C, SA (aqueous solution)
# [21] = 23 weeks, 22 °C, SM (methanol solution)
# [22] = 23 weeks, −15 °C, EE (ethyl acetate extract of bark)
# [23] = 23 weeks, −15 °C, EM (methanol extract of bark)
# [24] = 23 weeks, −15 °C, SA (aqueous solution)
# [25] = 23 weeks, −15 °C, SM (methanol solution)
Compound,"concentration as compared to the initial value [1, 2]","concentration as compared to the initial value [1, 3]","concentration as compared to the initial value [1, 4]","concentration as compared to the initial value [1, 5]","concentration as compared to the initial value [1, 6]","concentration as compared to the initial value [1, 7]","concentration as compared to the initial value [1, 8]","concentration as compared to the initial value [1, 9]","concentration as compared to the initial value [1, 10]","concentration as compared to the initial value [1, 11]","concentration as compared to the initial value [1, 12]","concentration as compared to the initial value [1, 13]","concentration as compared to the initial value [1, 14]","concentration as compared to the initial value [1, 15]","concentration as compared to the initial value [1, 16]","concentration as compared to the initial value [1, 17]","concentration as compared to the initial value [1, 18]","concentration as compared to the initial value [1, 19]","concentration as compared to the initial value [1, 20]","concentration as compared to the initial value [1, 21]",other results
"O=C1CCc2ccc(O)c(c2)-c2cc(ccc2O)C[C@@H](O)[C@H](O)C1 [Compound 3, giffonin X]",100.8 ± 0.5 ^#bcd %,100.2 ± 1.1 ^bcd %,99.3 ± 0.1 ^#bcd %,99.0 ± 0.1 ^#bcd %,101.6 ± 2.2 ^#bc %,102.7 ± 0.9 ^#bc %,96.2 ± 0.1 ^#bcd %,84.5 ± 7.4 ^#a %,103.5 ± 0.2 ^b %,101.6 ± 3.1 ^#bc %,100.1 ± 0.6 ^bcd %,100.4 ± 1.2 ^bcd %,100.9 ± 1.3 ^bcd %,93.8 ± 1.3 ^#de %,99.1 ± 0.1 ^#bcd %,81.9 ± 1.0 ^#a %,95.7 ± 0.5 ^#cd %,95.6 ± 2.4 ^#cd %,87.6 ± 0.7 ^#ae %,67.1 ± 7.5 %,"Papp at 4 h, 100 µM (PAMPA-GI; PAMPA, read-out: logPe PAMPA-GI (n = 9) (converted)): 6.03 ×10⁻⁶ cm/s; k ([1]; 5 °C, SA (aqueous solution)): 5.0 × 10^−4 Week^−1; t1/2 ([1]; 5 °C, SA (aqueous solution)): 1386.29 Week; k ([1]; 5 °C, SM (methanol solution)): 7.10 × 10^−3 Week^−1; t1/2 ([1]; 5 °C, SM (methanol solution)): 97.63 Week; k ([1]; 22 °C, SA (aqueous solution)): 5.90 × 10^−3 Week^−1; t1/2 ([1]; 22 °C, SA (aqueous solution)): 117.48 Week; k ([1]; 22 °C, SM (methanol solution)): 1.85 × 10^−2 Week^−1; t1/2 ([1]; 22 °C, SM (methanol solution)): 37.47 Week; concentration as compared to the initial value [1, 22]: 101.1 ± 2.7 ^#bcd %; concentration as compared to the initial value [1, 23]: 97.6 ± 3.2 ^bcd %; concentration as compared to the initial value [1, 24]: 97.9 ± 2.9 ^bcd %; concentration as compared to the initial value [1, 25]: 95.8 ± 0.1 ^#cd %; k ([1]; −15 °C, SM (methanol solution)): 1.60 × 10^−3 Week^−1; t1/2 ([1]; −15 °C, SM (methanol solution)): 433.22 Week"
"O=C1CCC(=O)C(O)Cc2ccc(O)c(c2)-c2cc(ccc2O)C1 (stereo not shown) [Compound 4, 3,12,17-trihydroxytricyclo [12.3.1.1^2,6]nonadeca-1(18),2(19),3,5,14,16-hexaene-8,11-dione]",102.0 ± 1.7%,105.5 ± 2.5%,100.5 ± 0.7 ^ab %,100.1 ± 0.6 ^ab %,106.3 ± 2.6 %,120.9 ± 2.6 %,100.8 ± 1.1 ^a %,100.1 ± 0.5 ^ab %,103.5 ± 0.8%,102.8 ± 3.3 %,98.6 ± 1.3 ^b %,99.1 ± 0.7 ^ab %,107.8 ± 2.6 %,107.0 ± 4.1%,100.0 ± 0.5 ^ab %,100.3 ± 0.5 ^ab %,108.5 ± 2.7 %,135.7 ± 9.7 %,100.3 ± 0.6 ^ab %,100.2 ± 0.5 ^ab %,"logPe PAMPA-GI (n = 9) (PAMPA-GI; donor pH 6.8, acceptor pH 7.4, 37 °C, 4 h, Pe in cm/s, n.d. = not detected in the acceptor phase): not detected in the acceptor phase; concentration as compared to the initial value [1, 22]: 108.0 ± 2.2 %; concentration as compared to the initial value [1, 23]: 103.6 ± 3.5%; concentration as compared to the initial value [1, 24]: 99.9 ± 1.2 ^ab %; concentration as compared to the initial value [1, 25]: 99.8 ± 1.2 ^ab %; storage stability in methanol and aqueous solutions (in words) ([1]; SM and SA, −15, 5, 22 °C, weeks 12 and 23): stable; also recorded: good stability"
